Experimental data as given in US12059418B2, “Plasmodial surface anion channel inhibitors for the treatment or prevention of malaria” (The United States of America, as represented by the …, priority 2011, dated 2024).

Key:
HB3 parasites = assay: In vitro parasite growth inhibition, HB3; format: cell-based, P. falciparum; settings: Plasmodium falciparum
PSAC [1] = assay: Transport inhibition in 22 different laboratory parasite lines; format: cell-based, P. falciparum
[2] = Inhibitor metabolism in parasite culture; format: in vitro ADME, P. falciparum; settings: 40 μM, 37° C., 72 h in Dd2 culture
Experimental: To examine possible inhibitor metabolism in parasite culture, Dd2 parasites were cultivated in standard media with 40 μM ISPA-28 at 37° C. for 72 h. After centrifugation, the culture supernatant was used as a source of ISPA-28 for comparison to freshly-prepared compound in transport inhibition studies.

[3] = system: PSAC on Dd2-infected cells; format: cell-based, P. falciparum; settings: Dd2 vs. HB3
PSAC [4] = assay: Uptake of alanine, proline and PhTMA by osmotic lysis; format: cell-based, P. falciparum
Description: ISPA-28 effects on uptake of the amino acids alanine and proline as well as the organic cation phenyl-trimethylammonium (PhTMA), solutes with known increases in permeability after infection (Ginsburg et al., Mol. Biochem. Parasitol. 14: 313-22 (1985); Bokhari et al., J. Membr. Biol. 226: 27-34 (2008)), were also examined.

Dd2 channels = assay: Cell-attached patch-clamp of Dd2-infected erythrocytes; settings: 10 μM, 1.1 M Cl−
HB3 channels = assay: Cell-attached patch-clamp of HB3-infected erythrocytes; settings: 10 μM, 1.1 M Cl−
[5] = system: channels from HB3 parasites; assay: Sorbitol uptake osmotic lysis, HB3-infected cells; format: cell-based, P. falciparum; settings: read-out: K0.5
Experimental: Inhibitor affinity for PSAC block was determined using a quantitative transmittance assay based on osmotic lysis of infected cells in sorbitol (Wagner et al., Biophys. J., 84: 116-123 (2003)). […] Other inhibitors had dose responses that are adequately fitted by a single Langmuir isotherm.

[6] = target: PSAC of Dd2 transfectant expressing HB3 allele for PFC0120w (clag 3.1) (Plasmodium falciparum, UniProt O77310); settings: read-out: transfectant K0.5; PFC0120w (clag 3.1) HB3 allele in Dd2
Sequence of PSAC of Dd2 transfectant expressing HB3 allele for PFC0120w (clag 3.1) (O77310 whole entry, looked up): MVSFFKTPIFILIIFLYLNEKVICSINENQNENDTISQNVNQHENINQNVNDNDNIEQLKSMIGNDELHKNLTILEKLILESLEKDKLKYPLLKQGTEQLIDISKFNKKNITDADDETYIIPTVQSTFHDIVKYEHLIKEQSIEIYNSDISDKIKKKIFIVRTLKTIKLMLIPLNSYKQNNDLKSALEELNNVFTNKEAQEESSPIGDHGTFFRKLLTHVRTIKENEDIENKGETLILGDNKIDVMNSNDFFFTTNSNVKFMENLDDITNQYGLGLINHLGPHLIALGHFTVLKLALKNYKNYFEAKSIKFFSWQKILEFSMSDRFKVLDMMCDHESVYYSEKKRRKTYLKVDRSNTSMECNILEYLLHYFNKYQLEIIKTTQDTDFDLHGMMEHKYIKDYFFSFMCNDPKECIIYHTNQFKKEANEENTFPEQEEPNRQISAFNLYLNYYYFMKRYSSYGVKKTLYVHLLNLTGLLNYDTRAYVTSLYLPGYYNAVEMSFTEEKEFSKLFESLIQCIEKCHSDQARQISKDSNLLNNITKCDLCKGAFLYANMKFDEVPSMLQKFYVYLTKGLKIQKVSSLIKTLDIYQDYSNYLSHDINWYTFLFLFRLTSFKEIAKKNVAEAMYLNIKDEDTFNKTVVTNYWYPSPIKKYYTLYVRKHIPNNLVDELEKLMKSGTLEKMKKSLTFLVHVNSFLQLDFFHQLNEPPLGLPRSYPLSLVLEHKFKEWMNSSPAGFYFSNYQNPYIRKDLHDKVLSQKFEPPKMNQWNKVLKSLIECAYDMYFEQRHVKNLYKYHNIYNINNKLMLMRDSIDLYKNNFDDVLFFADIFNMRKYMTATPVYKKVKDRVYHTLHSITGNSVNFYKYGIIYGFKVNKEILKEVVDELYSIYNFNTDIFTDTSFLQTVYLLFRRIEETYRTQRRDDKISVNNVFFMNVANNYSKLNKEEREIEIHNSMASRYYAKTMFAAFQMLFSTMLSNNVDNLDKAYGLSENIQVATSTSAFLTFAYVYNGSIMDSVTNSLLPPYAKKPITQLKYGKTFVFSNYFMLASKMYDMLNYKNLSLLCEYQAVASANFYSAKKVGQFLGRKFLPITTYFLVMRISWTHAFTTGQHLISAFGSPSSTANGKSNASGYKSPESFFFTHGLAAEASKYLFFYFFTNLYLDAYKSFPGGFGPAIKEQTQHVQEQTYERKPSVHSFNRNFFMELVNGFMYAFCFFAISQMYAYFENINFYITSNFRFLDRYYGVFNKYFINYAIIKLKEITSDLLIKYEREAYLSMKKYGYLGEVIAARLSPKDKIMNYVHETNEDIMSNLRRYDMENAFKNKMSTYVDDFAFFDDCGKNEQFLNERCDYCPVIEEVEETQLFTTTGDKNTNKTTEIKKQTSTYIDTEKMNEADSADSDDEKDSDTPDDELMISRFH

HB3^3rec = assay: In vitro parasite growth inhibition, HB3^3rec in PLM; format: cell-based, P. falciparum; settings: after transport-based selection
[7] = target: T1, PSAC of Dd2 transfectant expressing HB3 allele for PFC0110w (clag 3.2) (Plasmodium falciparum, UniProt O77309); assay: Sorbitol uptake inhibition, Dd2 transfectant expressing HB3 allele of PFC0110w; settings: read-out: transfectant K0.5; PFC0110w (clag 3.2) HB3 allele in Dd2
T1 sequence (O77309 25-1416): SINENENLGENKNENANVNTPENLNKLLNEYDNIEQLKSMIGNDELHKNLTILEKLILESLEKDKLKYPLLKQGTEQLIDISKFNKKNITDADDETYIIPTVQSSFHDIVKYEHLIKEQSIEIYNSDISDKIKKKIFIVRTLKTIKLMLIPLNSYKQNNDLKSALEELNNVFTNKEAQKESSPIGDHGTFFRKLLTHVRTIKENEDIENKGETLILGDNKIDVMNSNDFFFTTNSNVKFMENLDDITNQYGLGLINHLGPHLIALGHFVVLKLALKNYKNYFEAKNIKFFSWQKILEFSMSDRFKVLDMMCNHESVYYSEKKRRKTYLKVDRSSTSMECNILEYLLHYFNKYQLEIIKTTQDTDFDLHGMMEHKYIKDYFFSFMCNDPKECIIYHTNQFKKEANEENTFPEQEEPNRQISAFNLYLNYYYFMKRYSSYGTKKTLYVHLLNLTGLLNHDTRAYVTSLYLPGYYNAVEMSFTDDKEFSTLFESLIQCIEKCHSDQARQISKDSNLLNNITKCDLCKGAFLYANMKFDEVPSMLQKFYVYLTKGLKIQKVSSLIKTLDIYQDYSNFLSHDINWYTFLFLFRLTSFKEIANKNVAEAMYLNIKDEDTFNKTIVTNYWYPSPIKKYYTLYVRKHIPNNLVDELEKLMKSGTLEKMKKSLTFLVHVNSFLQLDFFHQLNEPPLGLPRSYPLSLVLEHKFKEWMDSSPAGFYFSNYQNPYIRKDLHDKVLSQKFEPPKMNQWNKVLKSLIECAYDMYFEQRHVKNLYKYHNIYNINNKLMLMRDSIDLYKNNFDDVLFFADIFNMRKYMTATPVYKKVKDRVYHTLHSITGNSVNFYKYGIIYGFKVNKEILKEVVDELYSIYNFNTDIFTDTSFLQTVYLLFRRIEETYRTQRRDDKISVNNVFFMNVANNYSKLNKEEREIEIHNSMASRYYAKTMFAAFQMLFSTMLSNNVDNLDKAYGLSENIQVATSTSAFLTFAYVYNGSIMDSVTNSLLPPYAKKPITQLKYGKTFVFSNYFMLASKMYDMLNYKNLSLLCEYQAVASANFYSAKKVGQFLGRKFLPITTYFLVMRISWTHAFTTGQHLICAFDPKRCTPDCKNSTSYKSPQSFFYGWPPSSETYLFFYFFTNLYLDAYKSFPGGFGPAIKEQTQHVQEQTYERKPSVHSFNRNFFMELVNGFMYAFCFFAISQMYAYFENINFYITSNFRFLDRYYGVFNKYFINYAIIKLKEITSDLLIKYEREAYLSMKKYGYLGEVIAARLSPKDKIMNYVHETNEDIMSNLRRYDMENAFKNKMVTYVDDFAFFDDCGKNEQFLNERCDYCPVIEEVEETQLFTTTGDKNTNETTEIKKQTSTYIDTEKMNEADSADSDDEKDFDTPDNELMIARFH

Dd2 parasites = assay: In vitro parasite growth inhibition, Dd2; format: cell-based, P. falciparum
[8] = system: PSAC activity on HB3^3rec; format: cell-based, P. falciparum; settings: HB3^3rec before selection
[9] = system: channels associated with clag3.2 gene from Dd2; assay: PSAC inhibition, 7C20 channels associated with clag3.2; format: cell-based, P. falciparum
Experimental: (§1) A PSAC inhibitor with reversed specificity for the two Dd2 clag3 products was next sought. To this end, hits from the high-throughput screen of Example 2 were surveyed using the progeny clone 7C20 before and after selection for clag3.1 expression. This secondary screen identified ISPA-43 as a PSAC inhibitor with an allele specificity opposite that of ISPA-28 (Formula B below (K0.5 of 32 and 3.9 μM for channels associated with clag3.1 and clag3.2 genes from Dd2, respectively).

[10] = target: T2, channels associated with clag3.2 gene from Dd2 (Plasmodium falciparum, UniProt A0A1W6IZK1); assay: as above; format: cell-based, P. falciparum; settings: read-out: K0.5; clag3.2 from Dd2
T2 construct: rows headed: K0.5; other: clag3.2 from Dd2
T2 sequence (A0A1W6IZK1 whole entry, looked up): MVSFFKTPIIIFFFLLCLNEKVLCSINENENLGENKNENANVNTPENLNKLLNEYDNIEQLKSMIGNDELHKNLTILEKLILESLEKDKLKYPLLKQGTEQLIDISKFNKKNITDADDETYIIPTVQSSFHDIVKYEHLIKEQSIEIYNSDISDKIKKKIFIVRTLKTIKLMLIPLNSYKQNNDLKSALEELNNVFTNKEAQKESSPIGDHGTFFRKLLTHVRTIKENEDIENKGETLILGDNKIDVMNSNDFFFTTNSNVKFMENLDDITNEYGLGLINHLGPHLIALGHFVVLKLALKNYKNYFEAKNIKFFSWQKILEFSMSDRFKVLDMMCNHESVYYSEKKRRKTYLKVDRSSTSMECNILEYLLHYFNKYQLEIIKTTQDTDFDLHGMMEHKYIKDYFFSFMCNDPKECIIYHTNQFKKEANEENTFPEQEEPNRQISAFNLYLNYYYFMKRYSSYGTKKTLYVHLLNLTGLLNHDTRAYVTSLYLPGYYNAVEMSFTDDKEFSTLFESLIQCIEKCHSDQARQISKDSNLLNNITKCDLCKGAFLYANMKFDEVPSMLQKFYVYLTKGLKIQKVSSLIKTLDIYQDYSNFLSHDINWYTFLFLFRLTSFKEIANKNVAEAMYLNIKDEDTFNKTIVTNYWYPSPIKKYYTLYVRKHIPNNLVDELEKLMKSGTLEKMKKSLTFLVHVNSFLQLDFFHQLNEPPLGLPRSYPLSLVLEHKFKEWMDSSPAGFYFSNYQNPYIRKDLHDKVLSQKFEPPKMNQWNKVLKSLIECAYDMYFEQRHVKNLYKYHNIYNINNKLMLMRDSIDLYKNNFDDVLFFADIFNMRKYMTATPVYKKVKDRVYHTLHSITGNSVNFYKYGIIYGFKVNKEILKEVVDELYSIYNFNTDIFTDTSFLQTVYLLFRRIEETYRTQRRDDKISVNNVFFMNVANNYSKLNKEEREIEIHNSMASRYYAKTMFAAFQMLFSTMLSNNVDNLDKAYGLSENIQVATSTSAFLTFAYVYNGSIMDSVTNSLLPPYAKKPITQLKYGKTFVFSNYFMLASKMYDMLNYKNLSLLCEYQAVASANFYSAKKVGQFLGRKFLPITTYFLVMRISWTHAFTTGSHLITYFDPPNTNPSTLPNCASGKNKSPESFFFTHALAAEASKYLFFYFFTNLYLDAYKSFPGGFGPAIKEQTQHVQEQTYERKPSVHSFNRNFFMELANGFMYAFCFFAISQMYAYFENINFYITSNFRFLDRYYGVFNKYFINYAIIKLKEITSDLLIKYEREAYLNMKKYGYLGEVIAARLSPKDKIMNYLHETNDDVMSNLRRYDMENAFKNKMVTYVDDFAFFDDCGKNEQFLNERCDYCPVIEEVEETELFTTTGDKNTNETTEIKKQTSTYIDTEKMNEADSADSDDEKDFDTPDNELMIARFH
Experimental: as §1

[11] = target: channels associated with clag3.1 gene from Dd2 (Plasmodium falciparum, UniProt O77310); assay: PSAC inhibition, 7C20 channels associated with clag3.1; format: cell-based, P. falciparum; settings: clag3.1 from Dd2; read-out: K0.5
Sequence of channels associated with clag3.1 gene from Dd2 (O77310 whole entry, looked up): as the sequence (O77310 whole entry, looked up) above
Experimental: as §1

SMILES	IC50 (HB3 parasites; HB3, PLM) [µM]	IC50 (HB3 parasites; HB3, RPMI-based media) [µM]	transport inhibition in 22 laboratory parasite lines (PSAC [1])	efficacy after metabolism under in vitro culture conditions [2]	difference in half-maximal affinities [3] [fold]	effects on uptake of alanine, proline and phenyl-trimethylammonium (PhTMA) (PSAC [4])	single PSAC channel inhibition (Dd2 channels)	single PSAC channel inhibition (HB3 channels)	IC50 [5] [µM]	IC50 [6] [µM]	growth inhibition sensitivity (HB3^3rec)	IC50 [7] [µM]	IC50 (Dd2 parasites; Plasmodium falciparum, DD2, PLM) [µM]	IC50 (Dd2 parasites; Plasmodium falciparum, DD2, RPMI-based media) [µM]	IC50 (Dd2 parasites; RPMI-based media) [µM]	channel's ISPA-28 affinity [8]	higher affinity for channels formed by Dd2 clag3.2 than clag3.1 [9] [fold]	IC50 [10] [µM]	IC50 [11] [µM]
CCn1cc(C2=NOC(C(=O)Nc3c(C)n(C)n(-c4ccccc4)c3=O)C2)c(C)n1 (stereo not shown) [ISPA-28]	52 ± 19	> 40	significant transport inhibition was found with only Dd2 and W2	not compromised by metabolism	~800	inhibited with dose responses matching those for sorbitol	near-fully inhibited	largely unaffected	43 ± 2	0.14 ± 0.012	sensitive to ISPA-28 at levels matching Dd2	0.095 ± 0.008	0.66 ± 0.2	> 40	~50	intermediate between those of HB3 and Dd2			
CCC(CC)C(=O)Nc1ncc2c(n1)CC(c1ccc(OC)c(OC)c1)CC2=O (stereo not shown) [ISPA-43]																	10	3.9	32
